Assays:
[1] = Stability test of crystal form A; type: physicochemical
Method: The crystal forms obtained in Examples 2-10 were packaged in double-layer PE bags+aluminum foil bags+cardboard barrels, sealed and stored at a temperature of 40° C. and a relative humidity of 75%; a temperature of 25° C. and a relative humidity of 60%; at 5±3° C. for 6 months. The inspection items (appearance, moisture, related substance 1, related substance 2, content) were tested, and the specific test methods were as follows.
• Moisture Meter • Electronic balance 1.2 Reagents • Karl Fischer titrant: analytical grad • Anhydrous methanol: analytical grade 1.3 Detection Method • About 50 mL of methanol was pumped into the titration beaker for pre-titration; • About 1.0 g of the test sample was accurately weighed and put into the titration beaker, stirred to dissolve, and the moisture of the test sample was titrated; • The weight of the test sample added, the concentration of the Karl Fischer titrant and the volume of the Karl Fischer titrant consumed during determination were recorded; the moisture of the second test sample was determined using the same method. 1.4 Calculation Formula
[formula] • V—Volume of Karl Fischer titrant consumed for the test sample, mL; • F—Equivalent mass of water per 1 mL of Karl Fischer titrant, mg/mL; • W—Weighed sample amount of the test sample, g. 2 Related Substance 1 2.1 Chromatographic Conditions: High Performance Liquid Chromatography (HPLC) • Column: Waters XBridge C18 4.6×150 mm, 5 μm • Detector: UV or equivalent detector • Wavelength: 210 nm • Column temperature: 35° C. • Flow rate: 1.0 mL/min • Injection volume: 10 μL • Needle Wash: Acetonitrile • Mobile phase gradient: […]
About 25 mg of the test sample was accurately weighed and put into a 50 mL volumetric flask. The diluent was added to dissolve the substance and dilute the solution to the mark, and the solution was shaken well.
[formula] • AU—the peak area of impurities in the test sample solution; • AT—Total peak area of the test sample solution. • 2) Total impurity (%)=Σ single impurity
• 3 Related Substance 2 (D-isobutyrylproline) • 3.1 Chromatographic Conditions: High Performance Liquid Chromatography (HPLC) • Column: Synergi Hydro RP 4.6×250 mm, 4 μm • Detector: UV or equivalent detector • Wave length: 210 nm • Column temperature: 35° C. • Flow rate: 1.0 mL/min • Injection volume: 5 μL • Needle Wash: Acetonitrile • Mobile phase gradient: […]
About 20 mg of the test sample was accurately weighed and put into a 10 mL volumetric flask. The diluent was added to dissolve the test sample and dilute the solution to the mark, and the solution was shaken well. Two solutions were prepared in parallel and labeled as S1/S2 respectively. • 3.4 Calculation: Only the Peak of Related Substance 2 was Integrated
[formula] [formula] • ARS2—Average peak area of reference solution 2; • ARS1—Average peak area of 5 injections of reference solution 1; • As—Peak area of related substance 2 in the test sample solution; • MRS1—Weighed sample amount of related substance 2 in reference solution 1, mg; • Ms—Weighed sample amount of the test sample in the test sample solution, mg; • MRS2—Weighed sample amount of related substance 2 in reference solution 2, mg; […]

[2] = Dynamic vapour sorption (DVS); type: physicochemical
Method: The DVS curves were acquired on DVS Intrinsic of SMS (Surface Measurement Systems). The relative humidity at 25° C. was corrected for the deliquescence points of LiCl, Mg(NO3)2 and KCl. • Test temperature: 25° C. • Sample amount: 10-20 mg • Shielding gas and flow: nitrogen, 200 mL/min • dm/dt: 0.002%/min; • Minimum dm/dt equilibration time: 10 min • Maximum equilibration time: 180 min • RH range: 0% RH-95% RH-0% RH • RH gradient: 10% 6. Polarizing Light Microscope (PLM)
The X-ray powder diffraction (XRPD) pattern of the solid is shown in FIG. 1, and the XRPD diffraction peak data thereof is shown in Table 1 below. […] (onset temperature). […] The PLM results are shown in FIG. 5, which indicate that the solid is irregular crystal particles. This crystal form is defined as crystal form A.

## CC(C)C(=O)N1CCC[C@H]1C(=O)OCOc1ccc([N+](=O)[O-])c2cccnc12 [crystal form A, ((5-nitroquinolin-8-yl)oxy)methyl-isobutyryl-L-prolinate]
[1]; 5 ± 3° C., Time 0
  Appearance: Yellow solid
  Content: 101.1%
  Moisture: 0.09%
  Related substance 1 5-Nitro-8-hydroxyquinoline: 0.04%
  Related substance 1 Impurity 1: 0.27%
  Related substance 1 Maximum unknown single impurity: RRT 1.126: 0.07%
  Related substance 1 Total impurities: 0.53%
  Related substance 2: 0.06%
[1]; 5 ± 3° C., Time 6 M
  Appearance: Yellow solid
  Content: 99.6%
  Moisture: 0.1%
  Related substance 1 Impurity 1: 0.3%
  Related substance 1 Impurity 2: <0.01%
  Related substance 1 Maximum unknown single impurity: RRT 1.121: 0.07%
  Related substance 1 Total impurities: 0.5%
  Related substance 2: 0.03%
[1]; 25° C., 60% RH, Time 0
  Appearance: Yellow solid
  Content: 101.1%
  Moisture: 0.09%
  Related substance 1 Impurity 1: 0.27%
  Related substance 1 Maximum unknown single impurity: RRT 1.126: 0.07%
  Related substance 1 Total impurities: 0.53%
  Related substance 2: 0.06%
[1]; 25° C., 60% RH, Time 3 M
  Appearance: Yellow solid
  Content: 99.3%
  Moisture: 0.07%
  Related substance 1 Impurity 1: 0.32%
  Related substance 1 Impurity 2: <0.01%
  Related substance 1 Maximum unknown single impurity: RRT 1.123: 0.06%
  Related substance 1 Total impurities: 0.51%
  Related substance 2: 0.04%
[1]; 25° C., 60% RH, Time 6 M
  Appearance: Yellow solid
  Content: 99.8%
  Moisture: <0.1%
  Related substance 1 Impurity 1: 0.3%
  Related substance 1 Impurity 2: <0.01%
  Related substance 1 Maximum unknown single impurity: RRT 1.121: 0.06%
  Related substance 1 Total impurities: 0.5%
  Related substance 2: 0.04%
[1]; 40° C., 75% RH, Time 0
  Appearance: Yellow solid
  Content: 101.1%
  Moisture: 0.09%
  Related substance 1 5-Nitro-8-hydroxyquinoline: 0.04%
  Related substance 1 Impurity 1: 0.27%
  Related substance 1 Maximum unknown single impurity: RRT 1.126: 0.07%
  Related substance 1 Total impurities: 0.53%
  Related substance 2: 0.06%
[1]; 40° C., 75% RH, Time 1 M
  Appearance: Yellow solid
  Content: 101.1%
  Moisture: 0.06%
  Related substance 1 5-Nitro-8-hydroxyquinoline: 0.02%
  Related substance 1 Impurity 1: 0.27%
  Related substance 1 Maximum unknown single impurity: RRT 1.125: 0.06%
  Related substance 1 Total impurities: 0.52%
  Related substance 2: 0.05%
[1]; 40° C., 75% RH, Time 2 M
  Appearance: Yellow solid
  Content: 98.8%
  Moisture: 0.09%
  Related substance 1 Impurity 1: 0.27%
  Related substance 1 Impurity 2: 0.01%
  Related substance 1 Maximum unknown single impurity: RRT 1.132: 0.05%
  Related substance 1 Total impurities: 0.44%
  Related substance 2: 0.06%
[1]; 40° C., 75% RH, Time 3 M
  Appearance: Yellow solid
  Content: 99.3%
  Moisture: 0.06%
  Related substance 1 Impurity 1: 0.32%
  Related substance 1 Maximum unknown single impurity: RRT 1.123: 0.05%
  Related substance 1 Total impurities: 0.49%
  Related substance 2: 0.10%
[1]; 40° C., 75% RH, Time 6 M
  Appearance: Yellow solid
  Content: 99.7%
  Moisture: <0.1%
  Related substance 1 5-Nitro-8-hydroxyquinoline: <0.1%
  Related substance 1 Impurity 1: 0.3%
  Related substance 1 Impurity 2: <0.01%
  Related substance 1 Maximum unknown single impurity: RRT 0.896: 0.04%
  Related substance 1 Total impurities: 0.6%
  Related substance 2: 0.15%
[2]
  crystal form before and after the DVS test (XRPD): unchanged
[2]; 25° C./80% RH
  vapor sorption (DVS): 0.17%
